# Laboratory results from patent publication US20220397566A1, “GAMMA-SECRETASE STABILIZING COMPOUND SCREENING ASSAY” (VIB VZW, priority 2019, published 2022).
# Assays:
# [1] = biological target: PSEN1/g-secretase (Homo sapiens, UniProt P49768); test: GFP-PSEN1 relocation in primary hippocampal neurons; assay type: cell-based; set-up: expressed in transfected cells; host or cells: rat (E18) primary hippocampal neurons, lentiviral pFUGW-GFP-PSEN1; conditions: rat primary hippocampal neurons, 1 μM
# Experimental: FIG. 1. DAPT relocates PSEN1/g-secretase to late endosomes. (A) PSEN1 and PSEN2 double knock-out (dKO) MEFs stably expressing GFP-PSEN1 or GFP-PSEN2 were treated for 16 h with 1 μM of DAPT or DMSO and immunostained for GFP (green) and LAMP1 antibodies (red). (B) Quantification of (A) using Mander's coefficient. (C) Ratio of GFP intensity in LAMP1-positive structures over total GFP intensity in the cell, normalized to DMSO-treated cells (control=Ctrl). (D) Quantification of size area of LAMP1-positive organelles per cell showing no significant differences between DMSO and DAPT-treated cells. (E) PSEN1, PSEN2 and NCT triple KO MEFs stably rescued with NCT-SNAP and GFP-PSEN1 were treated for 16 h with 1 μM of DAPT or DMSO (Ctrl). Prior to fixation, SNAP-Cell 647-SiR was added to label NCT-SNAP (red for Merge2). After 1 h, cells were fixed and immunostained for GFP (green) and LAMP1 (red for Merge2). Two merged images are shown. […] All graphs show the median with 95% confidence interval (n=3, ˜20 cells per experiments; p-values are calculated using Mann-Whitney test; ns means non-significant). […]
# The plasmids pSG5-C99-3×FLAG and pMSCV-GFP-PSEN1-wt and FADs, pFUGW-GFP-PSEN1 were previously described (Sannerud et al 2016 Cell 166). […] Primary hippocampal neurons were infected at 3 to 4 days in vitro (DIV) and analyzed at 7 DIV.
# [2] = biological target: T1, g-secretase complex (Homo sapiens, UniProt P49768); test: Cadherin CTF and APP CTF accumulation (Western blot); assay type: cell-based, mouse; conditions: FIG. 7 Western blot
# T1 construct: expressed in transfected cells
# Experimental: Second, of all these compounds, the inhibitory action on g-secretase activity was determined by quantifying the production of the C-terminal fragments (CTF) of Cadherin and APP. Both Cadherin-CTF and APP-CTF accumulate when the enzymatic activity of the g-secretase complex is inhibited. As can be appreciated from the Western blot in FIG. 7, all tested g-secretase inhibitors (C1, C2, C4 and C8) induced the level of Cadherin CTF and APP CTF in contrast to the negative control and the g-secretase stabilizers.
# Protein concentrations were determined by the Bio-Rad DC protein assay (Bio-Rad). Samples were separated by SDS-PAGE (4-12% Bis-Tris NuPAGE gels in MES running buffer (ThermoFisher Scientific) and transferred onto nitrocellulose membranes (ThermoFisher Scientific). After blocking in 5% non-fat milk, membranes were incubated with primary antibody (4° C., overnight) followed by washing and incubation with horseradish peroxidase (HRP)-conjugated secondary antibodies (1 h, room temperature). After final washing, immunodetection was done using enhanced chemiluminescence (Western Lightning-Plus ECL, PerkinElmer), and immunoreactive protein bands were digitally captured and quantified on a Fuji MiniLAS 3000 imager (Fuji, Dusseldorf, Germany) using Aida Image Analyzer software (Raytest, Germany). Data are represented as mean±SEM of at least three independent experiments.
smiles,measurement,setting,value
"C[C@H](NC(=O)Cc1cc(F)cc(F)c1)C(=O)N[C@H](C(=O)OC(C)(C)C)c1ccccc1 [DAPT, N—[N-(3,5-difluorophenacetyl)-L-alanyl]-S-phenylglycine t-butyl ester]",relocation of GFP-PSEN1,[1],Identical observations
same,level of APP CTF,[2],accumulate
same,level of Cadherin CTF,[2],accumulate
